Read-outs that look alike come from different tables or passages of the source.
What was measured:
nAChR = conditions: cited from earlier work
[1] = tested on: rats with a unilateral 6-hydroxydopamine lesion; assay: LIDs in rats with a unilateral 6-hydroxydopamine lesion; format: in vivo; conditions: parkinsonian rat model of LIDs
[2] = tested on: subjects with idiopathic PD with LIDs; conditions: Visit 4 (Week 10)
Procedure: (§1) At the time the study was performed (2009), there was no FDA accepted instrument for measuring treatment efficacy for LIDs. Therefore, several secondary objectives were utilized to assess efficacy including the Unified Dyskinesia Rating Scale (UDysRS).

[3] = tested on: subjects with idiopathic PD with LIDs; conditions: for Study discontinuation, primary reason adverse event, n (%): 35 randomized
Procedure: as §1
A total of 65 male and female subjects with idiopathic PD with LIDs were randomized in the study. The study consisted of 4 phases (FIG. 6A): screening phase (up to 3 weeks), double-blind treatment phase (10 weeks), taper phase (2 weeks), and follow-up phase (2 weeks). The approximate duration of the study for each subject was 17 weeks. […] During the double-blind treatment phase, dosing was begun at Visit 0 at 1 mg every 6 hours (total daily dose [TDD]=4 mg/day) and escalated upwards at 2-week intervals as follows: 2 mg every 6 hours (TDD=8 mg/day) at Visit 1 (Week 2); 4 mg every 6 hours (TDD=16 mg/day) at Visit 2 (Week 4); 6 mg every 6 hours (TDD=24 mg/day) at Visit 3 (Week 6). Subjects were maintained on 24 mg/day for 4 weeks. The subsequent taper phase (2 weeks total), beginning at Visit 4 (Week 10), consisted of 9 days of drug taper and 5 days off drug prior to Visit 5 (final safety visit). […] Ondansetron was provided by the sponsor and dispensed with each dose escalation step with instructions to use it for nausea and vomiting only during the first 4 days following dose initiation or escalation. […] No other dose down-titration was allowed.
(§2) Efficacy was measured with the Unified Dyskinesia Rating Scale (UDysRS), a semi-quantitative assessment, FDA-validated instrument to assess […] dyskinesia in PD. […] Dosing was begun at 1 mg every 6 hours to a final dose of 24 mg per day. Patients who tolerated a total daily dose of at least 16 mg per day continued in the study.
Subjects were maintained on 24 mg/day for 4 weeks. The subsequent taper phase (2 weeks total), beginning at visit 4 (Week 10), consisted of 9 days of drug taper and 5 days off drug prior to Visit 5 (final safety visit). […] No other down-titration was allowed.
(§3) LIDs were assessed by the UDysRS, the main measure of LIDs (Table 12). […] The study was conducted in accordance with the Declaration of Helsinki and Good Clinical Practice Guidelines. All sites received approval from an institutional review board and written informed consent was obtained from each patient prior to participation.

[4] = tested on: subjects with idiopathic PD with LIDs
Procedure: as §1, §2, §3
(§4) The efficacy variables for LIDs were the mean change from baseline to week 10 in the UDysRS total score; UDysRS sub-scores (Table 12). An analysis of covariance (ANCOVA) combined features of regression and analysis of variance (ANOVA). In addition to the descriptive summary of each variable from baseline to endpoint, Least Square (LS) means standard errors and 95% Confidence intervals (CI) of each group, and the difference of LS means between the 2 treatment groups and its 95% CI are presented. A similar analysis was applied to comparisons between UPDRS Part II, UPDRS Part III.

[5] = cited from earlier work; for absorption: oral / gastrointestinal tract
[6] = tested on: subjects with idiopathic PD with LIDs; conditions: during the 10-week study
Description: The original UPDRS scale was used. […] In the UPDRS Part II, Question 13 is on Falling unrelated to Freezing. […] In Part II, Question 14 is on Freezing when Walking. This is a 5-point item and has two variables freezing and falls. […] Questions 13 and 14 were compared separately (Table 11).
as §4

all nAChRs = conditions: cited from earlier work
[7] = Phase 2 data used for sample size

In the case of `Cc1ccc(-c2ccc(OC3CN4CCC3CC4)cn2)cc1` (centres unmarked) [AQW051], the Type of agonist (nAChR) is listed as “Partial”.

For `O=C(c1ccc(Cl)o1)N1CC2CNCC2C1` (centres unmarked) [AZD1446], the Type of agonist (nAChR) is listed as “Full”.

For `Clc1cc(N2C[C@@H]3CN[C@@H]3C2)cnc1Cl` [ABT-894], the Type of agonist (nAChR) is given as “Full”.

With `CN[C@@H](C)C/C=C/c1cncc(OC)c1` [TC-2696] the “effect on LIDs” value [1] was “reduced LIDs to varying extents”.

In the case of `CN1CCC[C@H]1c1cccnc1` [Nicotine, (S)-3-[1-methylpyrrolidin-2-yl]pyridine, reference compound], the “PGI-C responders (score of 1, 2, or 3)” value ([2]; p=0.0048 vs placebo) is reported as 21 (77.8%), the “LF-ADL responders (>25% reduction from baseline), vs placebo” value ([2]; p=0.0453) is reported as “statistically significant difference between treatment groups” and the “Study discontinuation, primary reason adverse event, n (%)” value [3] is reported as 6 n (%). The “Study discontinuation, primary reason adverse event, n (%)” value ([3]; listed as nicotine) was “Six”, the “impulsivity and nicotine withdrawal symptoms” value ([3]; after taper from 24 mg/day) was “no issues with impulsivity or withdrawal symptoms” and the “overall safety and tolerability” value ([3]; oral 4 times/day up to 24 mg/day, 10 weeks) was “safe and well tolerated”. For the same compound, the “UDysRS part III, Week 10 result: change from baseline, mean” value [4, 7] was 5.2, the “UDysRS walking, Week 10 result: change from baseline, mean” value [4, 7] was 4.4 and the “Gait-subtest of the UDysRS vs placebo” value ([4]; in vivo) was “statistically superior to placebo”. The “dyskinesia disability (UDysRS part 3), Walking, LF-ADL and PGI-C responders vs placebo” value ([4]; in vivo) was “Statistically significant differences favoring nicotine compared to placebo”, the efficacy over time (rats and mice; in vivo) was “no decline in its efficacy over time” and the “effect on LIDs” value (rats and mice; oral application, injection, slow-release minipumps) was “reduced LIDs”. For the same compound, the Type of agonist (nAChR) was “Full”, the nAChR subtype (nAChR) was “All” and the first-pass metabolism ([5]; in vivo) was “extensively metabolized into cotinine”. The “half-life” value ([5]; in vivo) was “very short half-life”, the absorption [5] was “well-absorbed in the gastrointestinal tract” and the absorption ([5]; listed as nicotine) was “rapidly absorbed”. The “worsening of Parkinson symptoms (UPDRS Part III, Hoehn and Yahr)” value [6] was “neither the UPDRS Part III nor the Hoehn and Yahr scales showed any worsening” and the “worsening of Parkinson symptoms (UPDRS Part III, Hoehn and Yahr)” value ([6]; listed as nicotine) was “did not cause any worsening of the PD symptoms”.

In the case of `Cc1ncccc1OC[C@@H]1CCCN1` [ABT-089], the Type of agonist (nAChR) is given as “Partial”.

For `c1cc2cc(-c3ccc(O[C@H]4CN5CCC4CC5)nn3)ccc2[nH]1` [ABT-107], the Type of agonist (nAChR) is listed as “Full”.

For `c1cncc(OC[C@@H]2CCN2)c1` [A-85380], the “effect on LIDs” value [1] was “reduced LIDs to varying extents”.

For `c1cnc2cc3c(cc2n1)[C@@H]1CNC[C@H]3C1` [Varenicline], the Ki (all nAChRs) is given as 0.1 nM, the Type of agonist (nAChR) is given as “Partial” and the nAChR subtype (nAChR) is given as “All”. The “effect on LIDs” value [1] was “reduced LIDs to varying extents”.

In the case of `OCCCCC#Cc1cncc(OC[C@@H]2CCN2)c1` [sazetidine], the “effect on LIDs” value [1] is reported as “reduced LIDs to varying extents”.
